Data reported in patent publication US20220002333A1, “CRYSTALLINE FORM A OF 2'-FLUORO-4'-SUBSTITUTED NUCLEOSIDE ANALOGUE I AND PREPARATION METHOD AND APPLICATION THEREOF” (Henan Genuine Biotech Co., Ltd., priority 2019, published 2022).
Read-outs that look alike come from different tables or passages of the source.

Tests used:
lung cancer = assay: Anticancer activity on lung cancer
Method: (§1) The anticancer activity of the crystalline form A of the compound I on B-cell non-Hodgkin lymphoma, lung cancer, gastric cancer, colorectal cancer and leukemia was determined according to the literature method (Wang, Q. et al Biochemical Pharmacology 2011, 81, 848; Asian Pacific Journal of Cancer Prevention 2014, 15, 6829).

[1] = test system: B-cell non-Hodgkin's lymphoma; assay: Anticancer activity on B-cell non-Hodgkin's lymphoma
Method: The anticancer (non-Hodgkin's lymphoma) activity of the crystalline form A of the compound I was determined according to the literature method (Asian Pacific Journal of cancer prevention 2014, 15, 6829).
as §1

leukemia = assay: Anticancer activity on leukemia
Method: as §1

[2] = Stability evaluation of crystalline forms under high temperature, high humidity and light (XRPD); assay type: physicochemical; conditions: for Stability of crystalline form under high humidity: 40° C. and 75% humidity for five and ten days; for Stability of crystalline form under high temperature: 60° C. for five days and ten days; for Stability in stability evaluation (overall): high temperature, high humidity and light
Method: The crystalline forms of the compound were systematically screened by means of unitary method, binary method, cooling, dissolution (positive and negative), diffusion and so on, and two crystalline forms were found: crystalline form A and amorphous crystalline form B. The stabilities of the crystalline form A and the crystalline form B under high temperature, high humidity and light were evaluated respectively. […] These experimental conditions were as follows: the high temperature condition is 60° C. for five days and ten days; the high humidity condition is 40° C. and 75% humidity for five and ten days; the light conditions were 4500 lux for five and ten days.

[3] = Static electricity and mixing uniformity with excipients / content of compound I in tablets; assay type: physicochemical; conditions: for Drug content for each tablet: 10 tablets arbitrarily selected, average 1 mg compound I and 149 mg excipients per 150 mg tablet; for Static: solid compound I
Method: After 10 days of storage at 40° C./75% humidity, 80-90% of the solid compound I with amorphous form B is gradually transformed into stable crystalline form A. The compound of crystalline form A is a loose solid. Because the dosage of the compound I for adults with AIDS is only 1-3 mg per day, which is a low amount, the uniform mixing of the compound with an excipient is crucial to ensure the anti HIV effect of the drug.

T-cell lymphoma = assay: Anti-T-cell lymphoma activity in patient-derived tumor xenografts (PDX) mouse model; assay type: in vivo
Method: The inhibitory effect of the crystalline form A of the compound I on T-cell lymphoma was determined by patient-derived tumor xenograft (PDX).
After the patient's T-cell lymphoid carcinoma tissue was sampled, the tissue was transferred to a specific pathogen free (SPF) animal room through a transfer window. In a super clean table, phosphate buffered saline (PBS) buffer with double antibodies, Dulbecco's modified eagle medium (DMEM) medium, Petri dish and ice bag were prepared. An appropriate amount of PBS and DMEM were poured to the Petri dishes on ice. The tissue was taken out and put into PBS for preliminary cleaning, and necrotic and normal tissue was removed. The tissue in PBS was transferred to DMEM. The remaining tissue was cut into small pieces of 20-30 mm^3 patches, which were transplanted into the armpit and back of mice with puncture needles. Each mouse was inoculated with the tissue on one site. The tumors of the inoculated mice were taken out regularly, photographed, and the volume changes thereof were compared (see FIG. 9).

[4] = listed as sheet amorphous solid B

Stability in stability evaluation (overall) [2]	Mixing with excipients [3]	Drug content for each tablet [3] [mg]	Static [3]	Static ([3]; listed as Crystalline form)	Portion of solid transformed into stable crystalline form A ([2]; after 10 days of storage at 40° C./75% humidity)	Drug content for each tablet ([3]; listed as Amorphous B) [mg]	Mixing with excipients [3, 4]	Static ([3]; listed as Amorphous B)	Static [3, 4]	SMILES	Inhibitory effect on lung cancer (lung cancer)	Inhibitory effect on B-cell non-Hodgkin's lymphoma [1]	Inhibitory effect on leukemia (leukemia)	Stability of crystalline form under high humidity [2]	Stability of crystalline form under high temperature [2]	Inhibition of growth of T-cell lymphoma (T-cell lymphoma; dose 2 mg/kg)	Inhibition of growth of T-cell lymphoma (T-cell lymphoma; dose 4 mg/kg)	Inhibition of growth of T-cell lymphoma (T-cell lymphoma; dose 8 mg/kg)
–	–	–	–	–	–	–	–	–	–	[N-]=[N+]=N[C@]1(CO)O[C@@H](n2ccc(N)nc2=O)[C@@H](F)[C@@H]1O [compound I, 2′-fluoro-4′-substituted nucleoside analogue I]	significant inhibitory effects	significant inhibitory effects	significant inhibitory effects	–	–	–	–	–
good stability	easy to mix evenly with excipients	0.95 to 1.05	no static electricity	No	–	–	–	–	–	[N-]=[N+]=N[C@]1(CO)O[C@@H](n2ccc(N)nc2=O)[C@@H](F)[C@@H]1O [crystalline form A, 2′-fluoro-4′-substituted nucleoside analogue I]	–	–	–	stable	stable	significantly inhibit	significantly inhibit	significantly inhibit
generally stable	–	–	–	–	80-90%	0.5 to 1.5	not easy to mix evenly with excipients	Yes	obvious static electricity	[N-]=[N+]=N[C@]1(CO)O[C@@H](n2ccc(N)nc2=O)[C@@H](F)[C@@H]1O [crystalline form B, 2′-fluoro-4′-substituted nucleoside analogue I]	–	–	–	gradually transformed into crystalline form A	gradually transformed into crystalline form A	–	–	–
